Read-outs that look alike come from different tables or passages of the source.
Test system: androgen receptor (AR) in LNCaP and/or VCaP cells
Experiment: Androgen Receptor ELISA assay (AR degradation)
Format: cell-based
How it was run: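 VCaP cells grown ≥3 days, then treated 5 h with compound in media containing 1 nM R1881 (10× stock). Cells lysed and AR quantified by sandwich ELISA (mouse AR detection Ab, HRP anti-mouse, TMB). DC50 and Dmax derived from AR degradation.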

[1] = degradation of AR ELISA in LNCaP and/or VCaP cells, Table 2C, read-out: DC50 Code*
[2] = LNCaP and/or VCaP cells, 5 hours incubation, media with R1881, read-out: DC50 Code* (degradation of AR ELISA)
[3] = degradation of AR ELISA in LNCaP and/or VCaP cells, read-out: DC50 Code*

DC50 [1] [nM]	DC50 [2] [nM]	Compound	further results
< 1		CC(C)N(CC1CN(c2ccc(C(=O)N[C@H]3C(C)(C)[C@H](Oc4ccc(C#N)c(Cl)c4)C3(C)C)cc2)C1)[C@H]1C[C@H](Oc2ccc3c(c2)C(=O)N(C2CCC(=O)NC2=O)C3=O)C1 (mixture of isomers) [compound 198, rac-N-((1r,3r)-3-(3-chloro-4-cyanophenoxy)-2,2,4,4-tetramethylcyclobutyl)-4-(3-((((1r,3r)-3-((2-(2,6-dioxopiperidin-3-yl)-1,3-dioxoisoindolin-5-yl)oxy)cyclobutyl) (isopropyl)amino)methyl)azetidin-1-yl)benzamide]	
< 1		Cc1cc(O[C@H]2C(C)(C)[C@H](NC(=O)c3ccc(N4CC(CN(C(C)C)[C@H]5C[C@H](Oc6ccc7c(c6)C(=O)N(C6CCC(=O)NC6=O)C7=O)C5)C4)cc3)C2(C)C)cc(C)c1C#N (stereo partly shown) [compound 187, N-((1r,3r)-3-(4-cyano-3,5-dimethylphenoxy)-2,2,4,4-tetramethylcyclobutyl)-4-(3-((((1r,3r)-3-((2-(2,6-dioxopiperidin-3-yl)-1,3-dioxoisoindolin-5-yl)oxy)cyclobutyl) (isopropyl)amino)methyl)azetidin-1-yl)benzamide]	
	< 1	COc1cc(O[C@H]2CC[C@H](NC(=O)c3cnc(N4CCC(CN(C(C)C)[C@H]5C[C@H](Oc6ccc7c(c6)C(=O)N(C6CCC(=O)NC6=O)C7=O)C5)CC4)cn3)CC2)ccc1C#N (stereo partly shown) [Compound 32, N-((1r,4r)-4-(4-cyano-3-methoxyphenoxy)cyclohexyl)-5-(4-((((1r,3r)-3-((2-(2,6-dioxopiperidin-3-yl)-1,3-dioxoisoindolin-5-yl)oxy)cyclobutyl) (isopropyl)amino)methyl)piperidin-1-yl)pyrazine-2-carboxamide]	
< 1		CCc1c(O[C@H]2C[C@H](N(CC3CCN(c4cnc(C(=O)N[C@H]5C(C)(C)[C@H](Oc6ccc(C#N)c(Cl)c6)C5(C)C)cn4)CC3)C(C)C)C2)ccc2c1CN(C1CCC(=O)NC1=O)C2=O (stereo partly shown) [compound 120, N-((1r,3r)-3-(3-chloro-4-cyanophenoxy)-2,2,4,4-tetramethylcyclobutyl)-5-(4-((((1r,3r)-3-((2-(2,6-dioxopiperidin-3-yl)-4-ethyl-1-oxoisoindolin-5-yl)oxy)cyclobutyl) (isopropyl)amino)methyl)piperidin-1-yl)pyrazine-2-carboxamide]	
< 1		CC1(C)[C@H](NC(=O)c2ccc(N3CC4CN(CC5CCN(c6ccc7c(c6)C(=O)N(C6CCC(=O)NC6=O)C7=O)CC5)CC4C3)cc2)C(C)(C)[C@H]1Oc1ccc(C#N)c(Cl)c1 (stereo partly shown) [compound 107, N-((1r,3r)-3-(3-chloro-4-cyanophenoxy)-2,2,4,4-tetramethylcyclobutyl)-4-(5-((1-(2-(2,6-dioxopiperidin-3-yl)-1,3-dioxoisoindolin-5-yl)piperidin-4-yl)methyl)hexahydropyrrolo [3,4-c]pyrrol-2(1H)-yl)benzamide]	
< 1		Cc1cc(O[C@H]2C(C)(C)[C@H](NC(=O)c3cnc(N4CCC(CN(C(C)C)[C@H]5C[C@H](Oc6ccc7c(c6)C(=O)N(C6CCC(=O)NC6=O)C7)C5)CC4)cn3)C2(C)C)cc(C)c1C#N (mixture of isomers) [compound 212, rac-N-((1r,3r)-3-(4-cyano-3,5-dimethylphenoxy)-2,2,4,4-tetramethylcyclobutyl)-5-(4-((((1r,3r)-3-((2-(2,6-dioxopiperidin-3-yl)-3-oxoisoindolin-5-yl)oxy)cyclobutyl) (isopropyl)amino)methyl)piperidin-1-yl)pyrazine-2-carboxamide]	
< 1		Cc1cc(O[C@H]2C(C)(C)[C@H](NC(=O)c3cnc(N4CCC(CN(C(C)C)[C@H]5C[C@H](Oc6cccc7c6CN(C6CCC(=O)NC6=O)C7=O)C5)CC4)cn3)C2(C)C)cc(C)c1C#N (mixture of isomers) [compound 185, rac-N-((1r,3r)-3-(4-cyano-3,5-dimethylphenoxy)-2,2,4,4-tetramethylcyclobutyl)-5-(4-((((1r,3r)-3-((2-(2,6-dioxopiperidin-3-yl)-1-oxoisoindolin-4-yl)oxy)cyclobutyl) (isopropyl)amino)methyl)piperidin-1-yl)pyrazine-2-carboxamide]	
	< 1	CC(C)N(CC1CCN(c2ccc(C(=O)N[C@H]3CC[C@H](Oc4ccc(C#N)c(Cl)c4)CC3)nn2)CC1)[C@H]1CC[C@H](Oc2ccc3c(c2)C(=O)N(C2CCC(=O)NC2=O)C3=O)CC1 (stereo partly shown) [Compound 47, N-((1r,4r)-4-(3-chloro-4-cyanophenoxy)cyclohexyl)-6-(4-((((1r,4r)-4-((2-(2,6-dioxopiperidin-3-yl)-1,3-dioxoisoindolin-5-yl)oxy)cyclohexyl) (isopropyl)amino)methyl)piperidin-1-yl)pyridazine-3-carboxamide]	
	> 100	CN1C(=O)CCC(N2C(=O)c3cc(F)c(N4CCN(CC5CCN(c6ccc(C(=O)N[C@H]7CC[C@H](Oc8ccc(C#N)c(Cl)c8)CC7)nn6)CC5)CC4)cc3C2=O)C1=O (stereo partly shown) [Compound 74, N-((1r,4r)-4-(3-chloro-4-cyanophenoxy)cyclohexyl)-6-(4-((4-(6-fluoro-2-(1-methyl-2,6-dioxopiperidin-3-yl)-1,3-dioxoisoindolin-5-yl)piperazin-1-yl)methyl)piperidin-1-yl)pyridazine-3-carboxamide]	
		COc1cc(O[C@H]2C(C)(C)[C@H](NC(=O)c3ccc(N4CCC(CN5CCOCCCCOc6cc(cc7c6C(=O)N(C6CCC(=O)NC6=O)C7=O)O[C@H]6C[C@H]5C6)CC4)nn3)C2(C)C)ccc1C#N (stereo partly shown) [compound 244]	DC50 [3]: 1 to 10 nM
		CC1(C)[C@H](NC(=O)c2ccc(N3CCC(CN4CCN(c5ccc6c(c5)C(=O)N(C5(C#N)CCC(=O)NC5=O)C6)CC4)CC3)cc2)C(C)(C)[C@H]1Oc1ccc(C#N)c(Cl)c1 (mixture of isomers) [compound 241, rac-N-((1r,3r)-3-(3-chloro-4-cyanophenoxy)-2,2,4,4-tetramethylcyclobutyl)-4-(4-((4-(2-(3-cyano-2,6-dioxopiperidin-3-yl)-3-oxoisoindolin-5-yl)piperazin-1-yl)methyl)piperidin-1-yl)benzamide]	DC50 [3]: 1 to 10 nM
	< 1	N#Cc1ccc(O[C@H]2CC[C@H](NC(=O)c3cnc(N4CCC(CN(CC5COC5)[C@H]5C[C@H](Oc6ccc7c(c6)CN(C6CCC(=O)NC6=O)C7=O)C5)CC4)cn3)CC2)cc1Cl (stereo partly shown) [Compound 13, N-((1r,4r)-4-(3-chloro-4-cyanophenoxy)cyclohexyl)-5-(4-((((1r,3r)-3-((2-(2,6-dioxopiperidin-3-yl)-1-oxoisoindolin-5-yl)oxy)cyclobutyl) (oxetan-3-ylmethyl)amino)methyl)piperidin-1-yl)pyrazine-2-carboxamide]	
< 1		Cc1cc(O[C@H]2C(C)(C)[C@H](NC(=O)c3ccc(N4CCC(CN5CCCC[C@H]5COc5ccc6c(c5)C(=O)N(C5CCC(=O)NC5=O)C6=O)CC4)cc3)C2(C)C)cc(C)c1C#N (stereo partly drawn) [compound 162, N-((1r,3S)-3-(4-cyano-3,5-dimethylphenoxy)-2,2,4,4-tetramethylcyclobutyl)-4-(4-(((2S)-2-(((2-(2,6-dioxopiperidin-3-yl)-1,3-dioxoisoindolin-5-yl)oxy)methyl)piperidin-1-yl)methyl)piperidin-1-yl)benzamide]	

Source: patent US20260053932A1, “COMPOUNDS AND METHODS FOR THE TARGETED DEGRADATION OF ANDROGEN RECEPTOR AND ASSOCIATED METHODS OF USE” (Arvinas Operations, Inc., priority 2020, published 2026)
